The target of one test is Tyk2 (Homo sapiens (Human), UniProt P29597). As to the kind of experiment: pSTAT4 Cell Assay (MSD, NK92 cells). The format is cell-based.
In another test the target is JH2 domain of human Tyk2 (Homo sapiens (Human), UniProt P29597). As to the kind of experiment: JH2 Biochemical Assay (TR-FRET probe displacement). In kind it is binding. For orientation: Time-resolved FRET reads energy transfer from a long-lived donor to a nearby acceptor.
[1] abbreviates: TR-FRET probe displacement, JH2 domain of human Tyk2.
Where [2] appears, read: JH2 domain of human Tyk2, TR-FRET probe displacement.
The mark [3] stands for this setting: TR-FRET probe displacement, JH2 domain.

Where two headings read alike, the source gives them in different places.

Tyk2, sequence (P29597 whole entry, the tested form may be a part): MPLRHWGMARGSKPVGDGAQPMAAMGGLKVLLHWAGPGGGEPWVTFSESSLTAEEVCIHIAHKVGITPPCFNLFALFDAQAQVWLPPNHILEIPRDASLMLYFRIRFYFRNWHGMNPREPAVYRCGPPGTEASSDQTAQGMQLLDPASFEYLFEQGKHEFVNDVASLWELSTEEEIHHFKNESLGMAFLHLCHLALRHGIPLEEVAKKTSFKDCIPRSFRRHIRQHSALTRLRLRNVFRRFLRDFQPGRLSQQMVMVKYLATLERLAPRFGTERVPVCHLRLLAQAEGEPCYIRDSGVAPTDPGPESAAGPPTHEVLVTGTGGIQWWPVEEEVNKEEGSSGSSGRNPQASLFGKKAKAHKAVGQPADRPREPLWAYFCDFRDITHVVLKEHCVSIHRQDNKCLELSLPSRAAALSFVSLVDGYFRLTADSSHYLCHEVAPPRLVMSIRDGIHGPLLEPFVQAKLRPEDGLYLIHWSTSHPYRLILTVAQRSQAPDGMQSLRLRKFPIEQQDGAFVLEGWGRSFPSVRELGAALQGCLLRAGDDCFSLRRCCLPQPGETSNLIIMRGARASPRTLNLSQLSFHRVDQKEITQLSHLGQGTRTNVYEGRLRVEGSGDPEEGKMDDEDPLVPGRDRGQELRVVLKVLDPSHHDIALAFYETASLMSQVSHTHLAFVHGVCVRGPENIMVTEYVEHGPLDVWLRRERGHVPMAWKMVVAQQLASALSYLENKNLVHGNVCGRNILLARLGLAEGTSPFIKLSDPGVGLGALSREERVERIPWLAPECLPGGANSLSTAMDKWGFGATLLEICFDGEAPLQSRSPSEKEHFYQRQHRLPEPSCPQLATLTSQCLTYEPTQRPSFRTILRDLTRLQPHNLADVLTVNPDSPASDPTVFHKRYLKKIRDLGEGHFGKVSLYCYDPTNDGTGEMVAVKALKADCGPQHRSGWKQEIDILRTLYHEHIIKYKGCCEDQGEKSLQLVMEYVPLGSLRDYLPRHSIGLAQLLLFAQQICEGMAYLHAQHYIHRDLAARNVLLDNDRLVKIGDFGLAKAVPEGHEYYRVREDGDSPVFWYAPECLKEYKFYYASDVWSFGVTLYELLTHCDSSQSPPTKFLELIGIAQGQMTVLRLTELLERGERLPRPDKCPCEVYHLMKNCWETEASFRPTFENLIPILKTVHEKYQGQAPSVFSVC
JH2 domain of human Tyk2, sequence (P29597 575-876): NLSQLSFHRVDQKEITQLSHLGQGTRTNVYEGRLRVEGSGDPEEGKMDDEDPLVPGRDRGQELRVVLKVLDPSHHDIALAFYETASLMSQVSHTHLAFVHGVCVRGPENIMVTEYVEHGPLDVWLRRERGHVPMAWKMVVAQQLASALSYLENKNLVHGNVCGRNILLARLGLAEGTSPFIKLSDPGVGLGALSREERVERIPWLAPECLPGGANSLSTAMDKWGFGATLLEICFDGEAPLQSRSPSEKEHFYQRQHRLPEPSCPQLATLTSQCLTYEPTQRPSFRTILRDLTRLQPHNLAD

Take `COc1cnc(NC(C)=O)cc1Nc1cc(-c2cnn(C(C)C)c2)nc(C(C)(F)F)n1` [Example 363, N-(4-((2-(1,1-difluoroethyl)-6-(1-isopropyl-1H-pyrazol-4-yl)pyrimidin-4-yl)amino)-5-methoxypyridin-2-yl)acetamide]: the IC50 against Tyk2 (MSD) and at JH2 domain of human Tyk2 (setting [1]) was at most 10 nM in each case.

As for `CC(=O)Nc1cc(Nc2cc(C)nc(C(C)(F)F)n2)c(OCCc2ccccn2)cn1` [Example 476, N-(4-((2-(1,1-difluoroethyl)-6-methylpyrimidin-4-yl)amino)-5-(2-(pyridin-2-yl)ethoxy)pyridin-2-yl)acetamide], the values for the IC50 against Tyk2 (MSD) and on JH2 domain of human Tyk2 (setting [2]) were 10 to 100 nM and at most 10 nM, respectively.

For the molecule `[2H]C([2H])([2H])N1CCn2nc(-c3cnc(NC(C)=O)cc3Nc3cc(C)nc(C(C)(F)F)n3)cc2C1` [Example 545, N-(4-((2-(1,1-difluoroethyl)-6-methylpyrimidin-4-yl)amino)-5-(5-(methyl-d3)-4,5,6,7-tetrahydropyrazolo[1,5-a]pyrazin-2-yl)pyridin-2-yl)acetamide], the IC50 against Tyk2 (MSD) and at JH2 domain of human Tyk2 (setting [2]) was at most 10 nM each time.

Turning to `CCc1cc(Nc2cc(NC(C)=O)ncc2-c2ccc(=O)n(C)n2)nc(C(C)(F)F)n1` [Example 865, N-(4-((2-(1,1-difluoroethyl)-6-ethylpyrimidin-4-yl)amino)-5-(1-methyl-6-oxo-1,6-dihydropyridazin-3-yl)pyridin-2-yl)acetamide], the figures for the IC50 against Tyk2 and on JH2 domain of human Tyk2 (setting [3]) were 10 to 100 nM and at most 10 nM, respectively.

As for `CCc1cnc(COc2cnc(NC(C)=O)cc2Nc2cc(C)nc(C(C)(F)F)n2)o1` [Example 327, N-(4-((2-(1,1-difluoroethyl)-6-methylpyrimidin-4-yl)amino)-5-((5-ethyloxazol-2-yl)methoxy)pyridin-2-yl)acetamide], the IC50 (usually the concentration at which inhibition is half-maximal) against Tyk2 (MSD) is 10 to 100 nM; on JH2 domain of human Tyk2 (setting [1]), at most 10 nM.

Consider `CC(=O)Nc1cc(Nc2cc(C)nc(C(C)(F)F)n2)c(OCC2CC23CC3)cn1` (stereo not shown) [Example 422, N-(4-((2-(1,1-difluoroethyl)-6-methylpyrimidin-4-yl)amino)-5-(spiro[2.2]pentan-1-ylmethoxy)pyridin-2-yl)acetamide], for which the IC50 is 10 to 100 nM against Tyk2 (MSD) and at most 10 nM at JH2 domain of human Tyk2 (setting [2]).

Turning to `CC(=O)Nc1cc(Nc2cc(C)nc(C(C)(F)F)n2)c(-c2ccc3c(n2)OCC(C)(C)O3)cn1` [Example 813, N-(4-((2-(1,1-difluoroethyl)-6-methylpyrimidin-4-yl)amino)-5-(2,2-dimethyl-2,3-dihydro-[1,4]dioxino[2,3-b]pyridin-6-yl)pyridin-2-yl)acetamide], the IC50 on Tyk2 and at JH2 domain of human Tyk2 (setting [3]) was at most 10 nM each time.

On to `CC(=O)Nc1cc(Nc2cc(C)nc(C(C)(F)F)n2)c(OCC(F)(F)F)cn1` [Example 23, N-(4-((2-(1,1-difluoroethyl)-6-methylpyrimidin-4-yl)amino)-5-(2,2,2-trifluoroethoxy)pyridin-2-yl)acetamide], for which the IC50 against Tyk2 (MSD) is 100 to 1000 nM; at JH2 domain of human Tyk2 (setting [1]), at most 10 nM.

For `COc1cc(Nc2ccnc(NC(C)=O)c2)nc(C(C)(F)F)n1` [Example 808, N-(4-((2-(1,1-difluoroethyl)-6-methoxypyrimidin-4-yl)amino)pyridin-2-yl)acetamide], the results for the IC50 against Tyk2 and at JH2 domain of human Tyk2 (setting [3]) were at least 1000 nM and 10 to 100 nM, respectively.

For `CCc1cnc(NC(C)=O)cc1Nc1cc(C)nc(C(C)(F)F)n1` [Example 42, N-(4-((2-(1,1-difluoroethyl)-6-methylpyrimidin-4-yl)amino)-5-ethylpyridin-2-yl)acetamide], the IC50 is at least 1000 nM on Tyk2 (MSD) and 10 to 100 nM on JH2 domain of human Tyk2 (setting [1]).

In the case of `COCCn1ccc(-c2cnc(NC(C)=O)cc2Nc2cc(C)nc(C(C)(F)F)n2)n1` [Example 257, N-(4-((2-(1,1-difluoroethyl)-6-methylpyrimidin-4-yl)amino)-5-(1-(2-methoxyethyl)-1H-pyrazol-3-yl)pyridin-2-yl)acetamide], the IC50 against Tyk2 (MSD) and on JH2 domain of human Tyk2 (setting [1]) was at most 10 nM throughout.

As for `CC(=O)Nc1cc(Nc2ccnc(C(C)(F)F)n2)c(-c2cncc(C#N)n2)cn1` [Example 766, N-(5-(6-cyanopyrazin-2-yl)-4-((2-(1,1-difluoroethyl)pyrimidin-4-yl)amino)pyridin-2-yl)acetamide], the IC50 is 100 to 1000 nM against Tyk2 and at most 10 nM on JH2 domain of human Tyk2 (setting [3]).

Regarding `CC(=O)Nc1cc(Nc2cc(C)nc(C(C)(F)F)n2)c(OCC2COC2)cn1` [Example 61, N-(4-((2-(1,1-difluoroethyl)-6-methylpyrimidin-4-yl)amino)-5-(oxetan-3-ylmethoxy)pyridin-2-yl)acetamide], the results for the IC50 against Tyk2 (MSD) and at JH2 domain of human Tyk2 (setting [1]) were 10 to 100 nM and at most 10 nM, respectively.

As to `CC(=O)Nc1cc(Nc2cc(C)nc(C34COC(C3)C4)n2)c(-c2ccc(C(F)F)cn2)cn1` [Example 572, N-(4′-((2-(2-oxabicyclo[2.1.1]hexan-4-yl)-6-methylpyrimidin-4-yl)amino)-5-(difluoromethyl)-[2,3′-bipyridin]-6′-yl)acetamide], the IC50 on Tyk2 (MSD) and on JH2 domain of human Tyk2 (setting [2]) was at most 10 nM in each case.

With `CC(=O)Nc1cc(Nc2cc(C)nc(C(C)(F)F)n2)c(-c2cc(C)cnn2)cn1` [Example 252, N-(4-((2-(1,1-difluoroethyl)-6-methylpyrimidin-4-yl)amino)-5-(5-methylpyridazin-3-yl)pyridin-2-yl)acetamide], the IC50 on Tyk2 (MSD) and on JH2 domain of human Tyk2 (setting [1]) was at most 10 nM throughout.

As for `COCCOc1cnc(NC(C)=O)cc1Nc1cccc(C(C)(F)F)n1` [Example 56, N-(4-((6-(1,1-difluoroethyl)pyridin-2-yl)amino)-5-(2-methoxyethoxy)pyridin-2-yl)acetamide], the IC50 against Tyk2 (MSD) and at JH2 domain of human Tyk2 (setting [1]) was at most 10 nM in each case.

Regarding `CC(=O)Nc1cc(Nc2cc(C)nc(C(C)(F)F)n2)c(-c2nc(C)co2)cn1` [Example 592, N-(4-((2-(1,1-difluoroethyl)-6-methylpyrimidin-4-yl)amino)-5-(4-methyloxazol-2-yl)pyridin-2-yl)acetamide], the values for the IC50 on Tyk2 (MSD) and at JH2 domain of human Tyk2 (setting [2]) were 10 to 100 nM and at most 10 nM, respectively.

With `CCc1cc(Nc2cc(NC(C)=O)ncc2-c2nnc(C)o2)nc(C(C)(F)F)n1` [Example 168, N-(4-((2-(1,1-difluoroethyl)-6-ethylpyrimidin-4-yl)amino)-5-(5-methyl-1,3,4-oxadiazol-2-yl)pyridin-2-yl)acetamide], the IC50 is 10 to 100 nM against Tyk2 (MSD) and at most 10 nM at JH2 domain of human Tyk2 (setting [1]).

As to `CC(=O)Nc1cc(Nc2cc(C)nc(C(C)(F)F)n2)c(-c2ccc(C(F)F)cn2)cn1` [Example 827, N-(4′-((2-(1,1-difluoroethyl)-6-methylpyrimidin-4-yl)amino)-5-(difluoromethyl)-[2,3′-bipyridin]-6′-yl)acetamide], the IC50 against Tyk2 and at JH2 domain of human Tyk2 (setting [3]) was at most 10 nM throughout.

As to `CC(=O)Nc1cc(Nc2cc(C)nc(C(C)(F)F)n2)c(OCc2cocn2)cn1` [Example 505, N-(4-((2-(1,1-difluoroethyl)-6-methylpyrimidin-4-yl)amino)-5-(oxazol-4-ylmethoxy)pyridin-2-yl)acetamide], the IC50 was 10 to 100 nM on Tyk2 (MSD) and at most 10 nM on JH2 domain of human Tyk2 (setting [2]).

Take `CC(=O)Nc1cc(Nc2cc(C)nc(C(C)(C)F)n2)c(-c2ccn3ccnc3n2)cn1` [Example 533, N-(4-((2-(2-fluoropropan-2-yl)-6-methylpyrimidin-4-yl)amino)-5-(imidazo[1,2-a]pyrimidin-7-yl)pyridin-2-yl)acetamide]: the IC50 at Tyk2 (MSD) and on JH2 domain of human Tyk2 (setting [2]) was at most 10 nM in each case.

Consider `CC(=O)Nc1cc(Nc2cc(C)nc(C(C)(F)F)n2)c(OCc2nc(C)c(C)o2)cn1` [Example 338, N-(4-((2-(1,1-difluoroethyl)-6-methylpyrimidin-4-yl)amino)-5-((4,5-dimethyloxazol-2-yl)methoxy)pyridin-2-yl)acetamide], for which the IC50 at Tyk2 (MSD) was 10 to 100 nM; on JH2 domain of human Tyk2 (setting [1]), at most 10 nM.

As to `CCc1cc(Nc2cc(NC(C)=O)ncc2-c2cnc(C3COCCO3)cn2)nc(C(C)(F)F)n1` (stereo not shown) [Example 898, N-(5-(5-(1,4-dioxan-2-yl)pyrazin-2-yl)-4-((2-(1,1-difluoroethyl)-6-ethylpyrimidin-4-yl)amino)pyridin-2-yl)acetamide], the IC50 at Tyk2 and on JH2 domain of human Tyk2 (setting [3]) was at most 10 nM each time.

Turning to `CCOc1cnc(NC(C)=O)cc1Nc1cc(-c2cnn(CC(=O)O)c2)nc(C(C)(F)F)n1` [Example 305, 2-(4-(6-((2-acetamido-5-ethoxypyridin-4-yl)amino)-2-(1,1-difluoroethyl)pyrimidin-4-yl)-1H-pyrazol-1-yl)acetic acid], the IC50 against Tyk2 (MSD) was at least 1000 nM; on JH2 domain of human Tyk2 (setting [1]), at most 10 nM.

On to `CCc1cc(Nc2cc(NC(=O)OC)ncc2OCCN(C)C)nc(C(C)(F)F)n1` [Example 92, methyl (4-((2-(1,1-difluoroethyl)-6-ethylpyrimidin-4-yl)amino)-5-(2-(dimethylamino)ethoxy)pyridin-2-yl)carbamate], for which the IC50 on Tyk2 (MSD) was 10 to 100 nM; at JH2 domain of human Tyk2 (setting [1]), at most 10 nM.

For the molecule `CC(=O)Nc1cc(Nc2cc(C)nc(C(C)(F)F)n2)c(OCc2nc(C)ns2)cn1` [Example 343, N-(4-((2-(1,1-difluoroethyl)-6-methylpyrimidin-4-yl)amino)-5-((3-methyl-1,2,4-thiadiazol-5-yl)methoxy)pyridin-2-yl)acetamide], the IC50 against Tyk2 (MSD) is 10 to 100 nM; at JH2 domain of human Tyk2 (setting [1]), at most 10 nM.

In the case of `CC(=O)Nc1cc(Nc2cc(C)nc(C3(F)CC3)n2)c(-c2ccn(C)n2)cn1` [Example 558, N-(4-((2-(1-fluorocyclopropyl)-6-methylpyrimidin-4-yl)amino)-5-(1-methyl-1H-pyrazol-3-yl)pyridin-2-yl)acetamide], the IC50 on Tyk2 (MSD) and at JH2 domain of human Tyk2 (setting [2]) was at most 10 nM each time.

As for `CC(=O)Nc1cc(Nc2cc(C)nc(C(C)(F)F)n2)c(OCc2cnccc2C)cn1` [Example 470, N-(4-((2-(1,1-difluoroethyl)-6-methylpyrimidin-4-yl)amino)-5-((4-methylpyridin-3-yl)methoxy)pyridin-2-yl)acetamide], the IC50 against Tyk2 (MSD) was 100 to 1000 nM; at JH2 domain of human Tyk2 (setting [2]) it was at most 10 nM.

Turning to `CC(=O)Nc1cc(Nc2ccnc(C(C)(F)F)n2)c(-c2cnc(N3CCOCC3)cn2)cn1` [Example 844, N-(4-((2-(1,1-difluoroethyl)pyrimidin-4-yl)amino)-5-(5-morpholinopyrazin-2-yl)pyridin-2-yl)acetamide], the results for the half-maximal inhibitory concentration (IC50) against Tyk2 and at JH2 domain of human Tyk2 (setting [3]) were 10 to 100 nM and at most 10 nM, respectively.
